Among the data in US8530650B2, “2, 5-diamino-substituted pyrido [4, 3-D] pyrimidines as autotaxin inhibitors against cancer” (MERCK PATENT GmbH, priority 2008, dated 2013) are IC50 values, retold here.

pIC50: −log10 of the molar value.

By pIC50 is commonly meant −log10 of the IC50, conventionally taken in molar units.

The target of this experiment is T1, recombinant autotaxin (Homo sapiens, UniProt Q13822).
T1 construct: made in house; host or cells: Hi5 insect cells (baculovirus)
Nature of the experiment: Autotaxin assay (Amplex Red, LPC substrate). Particulars: 75 μM LPC, Amplex Red fluorescence, ten 1:3 dilutions starting at 30 μM. Type of experiment: biochemical. The procedure, abridged:
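Baculovirus (Hi5)-expressed autotaxin (16 ng) was preincubated with compound 30 min at 22° C., then reacted with 75 μM final egg LPC for 90 min at 37° C.; choline released was coupled via choline oxidase/peroxidase to Amplex Red, fluorescence read kinetically (ex 485/em 612 nm). IC50 from 10-point 1:3 dilutions from 30 μM, duplicates, normalized to 500 μM C14 LPA as 0%.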
In the case of `CCN(CC)C(=O)C1CCCN(c2nccc3nc(NCc4ccccc4Cl)ncc23)C1` (stereo not drawn) [Compound 91, 1-[2-(2-Chloro-benzylamino)-pyrido[4,3-d]pyrimidin-5-yl]-piperidine-3-carboxylic acid diethylamide], the negative-log IC50 (pIC50) was > 4.52. The value for `CCOC(=O)CCNC(=O)C1CCCN(c2nccc3nc(NCc4ccccc4Cl)ncc23)C1` (stereo not drawn) [Compound 92, 3-({1-[2-(2-Chloro-benzylamino)-pyrido[4,3-d]pyrimidin-5-yl]-piperidine-3-carbonyl}-amino)-propionic acid ethyl ester] was > 5.00. On to `Cc1ccc(CNc2ncc3c(N4CCCC(C(=O)Nc5cccnc5)C4)nccc3n2)cc1` (stereo not drawn) [Compound 93, 1-[2-(4-Methyl-benzylamino)-pyrido[4,3-d]pyrimidin-5-yl]-piperidine-3-carboxylic acid pyridin-3-ylamide], for which the pIC50 is > 4.52. The value for `O=C(C1CCCN(c2nccc3nc(NCc4ccc(Cl)cc4)ncc23)C1)N1CCN(c2ccccn2)CC1` (stereo not drawn) [Compound 94, {1-[2-(4-Chloro-benzylamino)-pyrido[4,3-d]pyrimidin-5-yl]-piperidin-3-yl}-(4-pyridin-2-yl-piperazin-1-yl)-methanone] was > 5.00; that for `COc1ccc(CNc2ncc3c(N4CCCC(C(=O)N5CCN(c6ccccn6)CC5)C4)nccc3n2)cc1` (stereo not drawn) [Compound 95, {1-[2-(4-Methoxy-benzylamino)-pyrido[4,3-d]pyrimidin-5-yl]-piperidin-3-yl}-(4-pyridin-2-yl-piperazin-1-yl)-methanone] was > 4.52; that for `CCN(CC)CCNC(=O)C1CCN(c2nccc3nc(NCc4ccccc4Cl)ncc23)CC1` [Compound 96, 1-[2-(2-Chloro-benzylamino)-pyrido[4,3-d]pyrimidin-5-yl]-piperidine-4-carboxylic acid (2-diethylamino-ethyl)-amide] was > 5.30. The value for `CCCN1CCN(C(=O)C2CCN(c3nccc4nc(NCc5ccccc5Cl)ncc34)CC2)CC1` [Compound 97, {1-[2-(2-Chloro-benzylamino)-pyrido[4,3-d]pyrimidin-5-yl]-piperidin-4-yl}-(4-propyl-piperazin-1-yl)-methanone] was > 5.00; that for `CCOCCCNC(=O)C1CCN(c2nccc3nc(NCc4ccccc4Cl)ncc23)CC1` [Compound 98, 1-[2-(2-Chloro-benzylamino)-pyrido[4,3-d]pyrimidin-5-yl]-piperidine-4-carboxylic acid (3-ethoxy-propyl)-amide] was > 5.30; that for `O=C(C1CCCN(c2nccc3nc(NCc4ccccc4Cl)ncc23)C1)N1CCN(c2ccccn2)CC1` (stereo not drawn) [Compound 99, {1-[2-(2-Chloro-benzylamino)-pyrido[4,3-d]pyrimidin-5-yl]-piperidin-3-yl}-(4-pyridin-2-yl-piperazin-1-yl)-methanone] was > 5.30. On to `Fc1ccccc1Nc1nccc2nc(NCc3ccccc3Cl)ncc12` [Compound 100, N2-(2-Chloro-benzyl)-N5-(2-fluoro-phenyl)-pyrido[4,3-d]pyrimidine-2,5-diamine], for which the pIC50 is > 5.00. Under `CCOC(=O)CCNC(=O)C1CCN(c2nccc3nc(NCc4ccccc4Cl)ncc23)CC1` [Compound 101, 3-({1-[2-(2-Chloro-benzylamino)-pyrido[4,3-d]pyrimidin-5-yl]-piperidine-4-carbonyl}-amino)-propionic acid ethyl ester] stands > 4.52.

Consider `CCOCCCNC(=O)C1CCN(c2nccc3nc(NCc4ccccc4OC)ncc23)CC1` [Compound 102, 1-[2-(2-Methoxy-benzylamino)-pyrido[4,3-d]pyrimidin-5-yl]-piperidine-4-carboxylic acid (3-ethoxy-propyl)-amide], for which the pIC50 was > 4.52. For the molecule `CCN(CC)C(=O)C1CCN(c2nccc3nc(NCc4ccccc4OC)ncc23)CC1` [Compound 103, 1-[2-(2-Methoxy-benzylamino)-pyrido[4,3-d]pyrimidin-5-yl]-piperidine-4-carboxylic acid diethylamide], the negative logarithm of the IC50 (pIC50) is > 5.00. Turning to `CN1CCN(C(=O)C2CCCN(c3nccc4nc(NCc5ccccc5Cl)ncc34)C2)CC1` (stereo not drawn) [Compound 104, {1-[2-(2-Chloro-benzylamino)-pyrido[4,3-d]pyrimidin-5-yl]-piperidin-3-yl}-(4-methyl-piperazin-1-yl)-methanone], the pIC50 is > 4.52. With `O=C(NCCO)C1CCN(c2nccc3nc(NCc4ccccc4Cl)ncc23)CC1` [Compound 105, 1-[2-(2-Chloro-benzylamino)-pyrido[4,3-d]pyrimidin-5-yl]-piperidine-4-carboxylic acid (2-hydroxy-ethyl)-amide], the pIC50 was > 4.52. Take `Fc1ccc(N2CCN(c3nccc4nc(NCc5ccccc5Cl)ncc34)CC2)cc1` [Compound 106, (2-Chloro-benzyl)-{5-[4-(4-fluoro-phenyl)-piperazin-1-yl]-pyrido[4,3-d]pyrimidin-2-yl}-amine]: the negative logarithm of the IC50 (pIC50) is > 5.30. The value for `NC(=O)C1CCN(c2nccc3nc(NCc4ccccc4Cl)ncc23)CC1` [Compound 107, 1-[2-(2-Chloro-benzylamino)-pyrido[4,3-d]pyrimidin-5-yl]-piperidine-4-carboxylic acid amide] was > 5.30; that for `O=C(CN1CCN(c2nccc3nc(NCc4ccccc4Cl)ncc23)CC1)Nc1cccnc1` [Compound 108, 2-{4-[2-(2-Chloro-benzylamino)-pyrido[4,3-d]pyrimidin-5-yl]-piperazin-1-yl}-N-pyridin-3-yl-acetamide] was > 5.00; that for `Clc1ccccc1CNc1ncc2c(N3CCN(c4nccs4)CC3)nccc2n1` [Compound 109, (2-Chloro-benzyl)-[5-(4-thiazol-2-yl-piperazin-1-yl)-pyrido[4,3-d]pyrimidin-2-yl]amine] was > 5.00. Under `Clc1ccccc1CNc1ncc2c(N3CCN(c4ncccn4)CC3)nccc2n1` [Compound 112, (2-Chloro-benzyl)-[5-(4-pyrimidin-2-yl-piperazin-1-yl)-pyrido[4,3-d]pyrimidin-2-yl]-amine] stands > 4.52; under `O=C(c1ccco1)N1CCN(c2nccc3nc(NCc4ccccc4Cl)ncc23)CC1` [Compound 113, {4-[2-(2-Chloro-benzylamino)-pyrido[4,3-d]pyrimidin-5-yl]-piperazin-1-yl}-furan-2-yl-methanone], > 5.30. For the molecule `CCOC(=O)N1CCN(c2nccc3nc(NCc4ccccc4Cl)ncc23)CC1` [Compound 114, 4-[2-(2-Chloro-benzylamino)-pyrido[4,3-d]pyrimidin-5-yl]-piperazine-1-carboxylic acid ethyl ester], the negative logarithm of the IC50 (pIC50) is > 5.30. In the case of `CC(=O)N1CCN(c2nccc3nc(NCc4ccccc4Cl)ncc23)CC1` [Compound 115, 1-{4-[2-(2-Chloro-benzylamino)-pyrido[4,3-d]pyrimidin-5-yl]-piperazin-1-yl}-ethanone], the negative-log IC50 (pIC50) is > 4.52. In the case of `O=C(N1CCOCC1)N1CCN(c2nccc3nc(NCc4ccccc4Cl)ncc23)CC1` [Compound 116, {4-[2-(2-Chloro-benzylamino)-pyrido[4,3-d]pyrimidin-5-yl]-piperazin-1-yl}-morpholin-4-yl-methanone], the negative logarithm of the IC50 (pIC50) was > 5.30. Under `O=C(NCc1ccco1)N1CCN(c2nccc3nc(NCc4ccccc4Cl)ncc23)CC1` [Compound 117, 4-[2-(2-Chloro-benzylamino)-pyrido[4,3-d]pyrimidin-5-yl]-piperazine-1-carboxylic acid (furan-2-ylmethyl)-amide] stands > 4.52; under `O=C(Cc1ccccn1)N1CCN(c2nccc3nc(NCc4ccccc4Cl)ncc23)CC1` [Compound 119, 1-{4-[2-(2-Chloro-benzylamino)-pyrido[4,3-d]pyrimidin-5-yl]-piperazin-1-yl}-2-pyridin-2-yl-ethanone], > 5.30. Under `Cn1cc(CCC(=O)N2CCN(c3nccc4nc(NCc5ccccc5Cl)ncc34)CC2)cn1` [Compound 120, 1-{4-[2-(2-Chloro-benzylamino)-pyrido[4,3-d]pyrimidin-5-yl]-piperazin-1-yl}-3-(1-methyl-1H-pyrazol-4-yl)-propan-1-one] stands > 4.52; under `O=C(Cc1cccnc1)N1CCN(c2nccc3nc(NCc4ccccc4Cl)ncc23)CC1` [Compound 121, 1-{4-[2-(2-Chloro-benzylamino)-pyrido[4,3-d]pyrimidin-5-yl]-piperazin-1-yl}-2-pyridin-3-yl-ethanone], > 5.30. For `O=C(CCc1c[nH]cn1)N1CCN(c2nccc3nc(NCc4ccccc4Cl)ncc23)CC1` [Compound 122, 1-{4-[2-(2-Chloro-benzylamino)-pyrido[4,3-d]pyrimidin-5-yl]-piperazin-1-yl}-3-(1H-imidazol-4-yl)-propan-1-one], the negative-log IC50 (pIC50) was > 5.30. The value for `CC(=O)CCC(=O)N1CCN(c2nccc3nc(NCc4ccccc4Cl)ncc23)CC1` [Compound 123, 1-{4-[2-(2-Chloro-benzylamino)-pyrido[4,3-d]pyrimidin-5-yl]-piperazin-1-yl}-pentane-1,4-dione] was > 4.52; that for `CN(C)C(=O)CCC(=O)N1CCN(c2nccc3nc(NCc4ccccc4Cl)ncc23)CC1` [Compound 125, 4-{4-[2-(2-Chloro-benzylamino)-pyrido[4,3-d]pyrimidin-5-yl]-piperazin-1-yl}-N,N-dimethyl-4-oxo-butyramide] was > 4.52. As for `CC(=O)OCC(=O)N1CCN(c2nccc3nc(NCc4ccccc4Cl)ncc23)CC1` [Compound 126, Acetic acid 2-{4-[2-(2-chloro-benzylamino)-pyrido[4,3-d]pyrimidin-5-yl]-piperazin-1-yl}-2-oxo-ethyl ester], the pIC50 is > 5.30. Consider `O=C(O)C1CCN(c2nccc3nc(NCc4ccccc4Cl)ncc23)CC1` [Compound 127, 1-[2-(2-Chloro-benzylamino)-pyrido[4,3-d]pyrimidin-5-yl]-piperidine-4-carboxylic acid], for which the pIC50 was > 5.30.
